In US20220370416A1, “COMPOUNDS AND METHODS FOR TARGETED DEGRADATION OF KRAS” (Arvinas Operations, Inc., priority 2020, published 2022):

Tests used:
[1] = target: T1, HiBit-KRAS^G12C (Homo sapiens, UniProt P01116, G12C); test: HiBit degradation assay in SW1573 HiBit-KRas^G12C cells; format: cell-based; set-up: expressed in transfected cells; host or cells: SW1573 (clone E6), modified pcDNA3.1 vector, TK promoter; conditions: 0.5% DMSO, 24 hours; for DC50: read-out: KRas^G12C-HiBiT (SW1573; 0.5% DMSO) IC50***; for DC50 / KRas^G12C-HiBiT (SW1573; 0.5% DMSO) Dmax**: SW1573 HiBit-KRas^G12C; for Dmax: SW1573, SW1573 HiBit-KRas^G12C, read-out: KRas^G12C-HiBiT (SW1573; 0.5% DMSO) Dmax**
T1 sequence (P01116 1-186 isoform P01116-2 G12C limits assumed): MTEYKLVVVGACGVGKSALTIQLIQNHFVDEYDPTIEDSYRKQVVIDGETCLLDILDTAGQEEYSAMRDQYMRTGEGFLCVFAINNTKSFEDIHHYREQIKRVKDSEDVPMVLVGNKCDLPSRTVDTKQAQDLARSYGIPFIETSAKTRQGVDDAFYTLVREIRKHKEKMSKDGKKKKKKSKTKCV
In short: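 SW1573 cells stably expressing N-terminally HiBit-tagged KRAS G12C, under the TK promoter, were treated 24 h at 37 °C with 10 μM to 20 nM compound in 0.1% or 0.5% DMSO. Residual HiBit luminescence normalised to DMSO and fitted with a 4-parameter model for DC50 and Dmax. Points with ≥50% viability loss (alamar blue) excluded.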

[2] = target: T1, HiBit-KRAS^G12C; test: HiBit degradation assay in MiaPaCa-2 HiBit-KRas^G12C cells; format: cell-based; conditions: 0.5% DMSO, 24 hours; for Dmax: MIA PaCa-2, MiaPaCa-2 HiBit-KRas^G12C cells, read-out: KRas^G12C-HiBiT (MiaPaCa; 0.5% DMSO) DMax; for Dmax / KRas^G12C-HiBiT (MiaPaCa; 0.5% DMSO) DMax: maximum degradation; for DC50: read-out: KRas^G12C-HiBiT (MiaPaCa; 0.5% DMSO) IC50; for DC50 / KRas^G12C-HiBiT (MiaPaCa; 0.5% DMSO) DMax: MiaPaCa-2 HiBit-KRas^G12C cells
In short: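 MiaPaCa-2 cells with CRISPR N-terminal HiBit knock-in on one endogenous KRAS^G12C allele, treated 24 hours at 37° C with compound titrated 10 μM to 20 nM (0.1% or 0.5% DMSO). Lytic HiBit luminescence normalized to DMSO, 4-parameter fit giving DC50 and Dmax; points cytotoxic to […] cells by alamar blue excluded.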

Row | SMILES | DC50 [1] [nM] | Dmax [2] [%] | DC50 [2] [nM] | Dmax [1] [%] | KRas^G12C-HiBiT (SW1573; 0.5% DMSO) Dmax** [1] | KRas^G12C-HiBiT (MiaPaCa; 0.5% DMSO) DMax [2]
1 | C=CC(=O)N1CCN(c2nc(OCCN3CCC(COc4cc([C@H](C(=O)N5C[C@H](O)C[C@H]5C(=O)N[C@@H](C)c5ccc(C#N)cc5)C(C)C)on4)CC3)nc3c(F)c(-c4cc(O)cc5ccccc45)c(Cl)cc23)C[C@@H]1CC#N [Compound 160, (2S,4R)-1-[(2R)-2-[3-({1-[2-({6-chloro-4-[(3S)-3-(cyanomethyl)-4-(prop-2-enoyl)piperazin-1-yl]-8-fluoro-7-(3-hydroxynaphthalen-1-yl)quinazolin-2-yl}oxy)ethyl]piperidin-4-yl}methoxy)-1,2-oxazol-5-yl]-3-methylbutanoyl]-N-[(1S)-1-(4-cyanophenyl)ethyl]-4-hydroxypyrrolidine-2-carboxamide] | > 1000 | < 35 | 100 to 1000 |  |  | 
2 | C=CC(=O)N1CCN(c2nc(OCCN3CCC(COc4cc([C@@H](C(=O)N5C[C@H](O)C[C@H]5C(=O)N[C@@H](C)c5ccc(C#N)cc5)C(C)C)on4)CC3)nc3c(F)c(-c4cc(O)cc5ccccc45)c(Cl)cc23)C[C@@H]1CC#N [Compound 161, (2S,4R)-1-[(2S)-2-[3-({1-[2-({6-chloro-4-[(3S)-3-(cyanomethyl)-4-(prop-2-enoyl)piperazin-1-yl]-8-fluoro-7-(3-hydroxynaphthalen-1-yl)quinazolin-2-yl}oxy)ethyl]piperidin-4-yl}methoxy)-1,2-oxazol-5-yl]-3-methylbutanoyl]-N-[(1S)-1-(4-cyanophenyl)ethyl]-4-hydroxypyrrolidine-2-carboxamide] | < 100 | 35 to 70 | 100 to 1000 | 35 to 70 |  | 
3 | Cc1ncsc1-c1ccc([C@H](C)NC(=O)[C@@H]2C[C@@H](O)CN2C(=O)[C@@H](NC(=O)COCC2CCN(CCOc3nc(N4CCN(C(=O)/C=C/CN5CCOCC5)[C@@H](CC#N)C4)c4cc(Cl)c(-c5cc(O)cc6ccccc56)c(F)c4n3)CC2)C(C)(C)C)cc1 [Compound 164, (2S,4R)-1-[(2S)-2-[2-({1-[2-({6-chloro-4-[(3S)-3-(cyanomethyl)-4-[(2E)-4-(morpholin-4-yl)but-2-enoyl]piperazin-1-yl]-8-fluoro-7-(3-hydroxynaphthalen-1-yl)quinazolin-2-yl}oxy)ethyl]piperidin-4-yl}methoxy)acetamido]-3,3-dimethylbutanoyl]-4-hydroxy-N-[(1S)-1-[4-(4-methyl-1,3-thiazol-5-yl)phenyl]ethyl]pyrrolidine-2-carboxamide] | 100 to 1000 | 35 to 70 | > 1000 | 35 to 70 |  | 
4 | Cc1ncsc1-c1ccc([C@H](C)NC(=O)[C@@H]2C[C@@H](O)CN2C(=O)[C@@H](NC(=O)COCC2CCN(CCOc3nc(N4CCN(C(=O)/C=C/CN(C)C)[C@@H](CC#N)C4)c4cc(Cl)c(-c5cc(O)cc6ccccc56)c(F)c4n3)CC2)C(C)(C)C)cc1 [Compound 165, (2S,4R)-1-[(2S)-2-[2-({1-[2-({6-chloro-4-[(3S)-3-(cyanomethyl)-4-[(2E)-4-(dimethylamino)but-2-enoyl]piperazin-1-yl]-8-fluoro-7-(3-hydroxynaphthalen-1-yl)quinazolin-2-yl}oxy)ethyl]piperidin-4-yl}methoxy)acetamido]-3,3-dimethylbutanoyl]-4-hydroxy-N-[(1S)-1-[4-(4-methyl-1,3-thiazol-5-yl)phenyl]ethyl]pyrrolidine-2-carboxamide] | 100 to 1000 | 35 to 70 | > 1000 | 35 to 70 |  | 
5 | C=C(F)C(=O)N1CCN(c2nc(OCCN3CCC(COc4cc([C@H](C(=O)N5C[C@H](O)C[C@H]5C(=O)N[C@@H](C)c5ccc(-c6scnc6C)cc5)C(C)C)on4)CC3)nc3c(F)c(-c4cc(O)cc5ccccc45)c(Cl)cc23)C[C@@H]1CC#N [Compound 168, (2S,4R)-1-[(2R)-2-[3-({1-[2-({6-chloro-4-[(3S)-3-(cyanomethyl)-4-(2-fluoroprop-2-enoyl)piperazin-1-yl]-8-fluoro-7-(3-hydroxynaphthalen-1-yl)quinazolin-2-yl}oxy)ethyl]piperidin-4-yl}methoxy)-1,2-oxazol-5-yl]-3-methylbutanoyl]-4-hydroxy-N-[(1S)-1-[4-(4-methyl-1,3-thiazol-5-yl)phenyl]ethyl]pyrrolidine-2-carboxamide] | 100 to 1000 |  | 100 to 1000 |  | A (A ≥ 70) | A (A ≥ 70)
6 | C=CC(=O)N1CCN(c2nc(OCCN3CCC(COc4cc([C@H](C(=O)N5C[C@H](O)C[C@H]5C(=O)N[C@@H](C)c5ccc(-c6scnc6C)cc5)C(C)C)on4)CC3)nc3c(F)c(-c4cc(O)cc5ccccc45)c(Cl)cc23)C[C@@H]1CC#N [Compound 169, (2S,4R)-1-[(2R)-2-[3-({1-[2-({6-chloro-4-[(3S)-3-(cyanomethyl)-4-(prop-2-enoyl)piperazin-1-yl]-8-fluoro-7-(3-hydroxynaphthalen-1-yl)quinazolin-2-yl}oxy)ethyl]piperidin-4-yl}methoxy)-1,2-oxazol-5-yl]-3-methylbutanoyl]-4-hydroxy-N-[(1S)-1-[4-(4-methyl-1,3-thiazol-5-yl)phenyl]ethyl]pyrrolidine-2-carboxamide] | < 100 |  | 100 to 1000 |  | A (A ≥ 70) | A (A ≥ 70)
7 | C=C(F)C(=O)N1CCN(c2nc(OCCN3CCC(OCCOCC(=O)N[C@H](C(=O)N4C[C@H](O)C[C@H]4C(=O)N[C@@H](C)c4ccc(-c5scnc5C)cc4)C(C)(C)C)CC3)nc3c(F)c(-c4cc(O)cc5ccccc45)c(Cl)cc23)C[C@@H]1CC#N [Compound 170, (2S,4R)-1-[(2S)-2-{2-[2-({1-[2-({6-chloro-4-[(3S)-3-(cyanomethyl)-4-(2-fluoroprop-2-enoyl)piperazin-1-yl]-8-fluoro-7-(3-hydroxynaphthalen-1-yl)quinazolin-2-yl}oxy)ethyl]piperidin-4-yl}oxy)ethoxy]acetamido}-3,3-dimethylbutanoyl]-4-hydroxy-N-[(1S)-1-[4-(4-methyl-1,3-thiazol-5-yl)phenyl]ethyl]pyrrolidine-2-carboxamide] | 100 to 1000 | 35 to 70 | 100 to 1000 | > 70 |  | 
8 | C=C(F)C(=O)N1CCN(c2nc(OCCN3CCC(COc4cc([C@@H](C(=O)N5C[C@H](O)C[C@H]5C(=O)N[C@@H](C)c5ccc(-c6scnc6C)cc5)C(C)C)on4)CC3)nc3c(F)c(-c4cc(O)cc5ccccc45)c(Cl)cc23)C[C@@H]1CC#N [Compound 171, (2S,4R)-1-[(2S)-2-[3-({1-[2-({6-chloro-4-[(3S)-3-(cyanomethyl)-4-(2-fluoroprop-2-enoyl)piperazin-l-yl]-8-fluoro-7-(3-hydroxynaphthalen-1-yl)quinazolin-2-yl}oxy)ethyl]piperidin-4-yl}methoxy)-1,2-oxazol-5-yl]-3-methylbutanoyl]-4-hydroxy-N-[(1S)-1-[4-(4-methyl-1,3-thiazol-5-yl)phenyl]ethyl]pyrrolidine-2-carboxamide] | > 1000 |  | > 1000 |  |  | 
9 | C=CC(=O)N1CCN(c2nc(OCCN3CCC(COc4cc([C@@H](C(=O)N5C[C@H](O)C[C@H]5C(=O)N[C@@H](C)c5ccc(-c6scnc6C)cc5)C(C)C)on4)CC3)nc3c(F)c(-c4cc(O)cc5ccccc45)c(Cl)cc23)C[C@@H]1CC#N [Compound 172, (2S,4R)-1-[(2S)-2-[3-({1-[2-({6-chloro-4-[(3S)-3-(cyanomethyl)-4-(prop-2-enoyl)piperazin-1-yl]-8-fluoro-7-(3-hydroxynaphthalen-1-yl)quinazolin-2-yl}oxy)ethyl]piperidin-4-yl}methoxy)-1,2-oxazol-5-yl]-3-methylbutanoyl]-4-hydroxy-N-[(1S)-1-[4-(4-methyl-1,3-thiazol-5-yl)phenyl]ethyl]pyrrolidine-2-carboxamide] | > 1000 |  | > 1000 |  |  | 
